Measured values reported in patent US8952024B2, “Herbicidal pyrimidone derivatives” (E I du Pont de Nemours and Company, priority 2009, dated 2015).

Experiments:
Format in all cases: in vivo
[1] = test system: pigweed (Amaranthus retroflexus); experiment: Test A pre-/postemergence plant response
Text: (§1) Seeds of barnyardgrass (Echinochloa crus-galli), large crabgrass (Digitaria sanguinalis), giant foxtail (Setaria faberii), morningglory (Ipomoea spp.), pigweed (Amaranthus retroflexus), velvetleaf (Abutilon theophrasti), wheat (Triticum aestivum) and corn (Zea mays) were planted into a blend of loam soil and sand and treated preemergence with a directed soil spray using test chemicals formulated in a non-phytotoxic solvent mixture which included a surfactant. At the same time these species were also treated with postemergence applications of test compounds formulated in the same manner.
(§2) Plants ranged in height from two to ten cm and were in the one- to two-leaf stage for the postemergence treatment. Treated plants and untreated controls were maintained in a greenhouse for approximately ten days, after which time all treated plants were compared to untreated controls and visually evaluated for injury. Plant response ratings, summarized in Table A, are based on a 0 to 100 scale where 0 is no effect and 100 is complete control. A dash (-) response means no test result.

[2] = test system: giant foxtail (Setaria faberii); experiment: Test A pre-/postemergence plant response
Text: as §1, §2

[3] = test system: velvetleaf (Abutilon theophrasti); experiment: Test A pre-/postemergence plant response
Text: as §1, §2

[4] = test system: morningglory (Ipomoea spp.); experiment: Test A pre-/postemergence plant response
Text: as §1, §2

[5] = test system: large crabgrass (Digitaria sanguinalis); experiment: Test A pre-/postemergence plant response
Text: as §1, §2

[6] = test system: wheat (Triticum aestivum); experiment: Test A pre-/postemergence plant response
Text: as §1, §2

corn (Zea mays) = experiment: Test A pre-/postemergence plant response
Text: as §1, §2

[7] = test system: barnyardgrass (Echinochloa crus-galli); experiment: Test A pre-/postemergence plant response
Text: as §1, §2

rice (Oryza sativa) = experiment: Test B flooded paddy test; conditions: for Plant response rating, Flood, Rice: 250 g ai/ha, flooded paddy test, visual rating on 0 to 100 scale (0 no effect, 100 complete control) after 13 to 15 days; for Plant response rating, Rice: Flood (flooded paddy test), 13 to 15 days; for Rice plant response rating: Flood, 31 g ai/ha, scale 0 to 100 (0 no effect, 100 complete control)
Outline: (§3)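 Post-flood paddy application: compounds are introduced into water 3 cm deep over the soil, reaching plants at the 2-leaf stage. The water level is maintained, and after 13–15 days under greenhouse conditions, response is judged by eye relative to controls, where 100 means complete control.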

[8] = test system: ducksalad (Heteranthera limosa); experiment: Test B flooded paddy test; conditions: for Plant response rating, Flood, Ducksalad: 250 g ai/ha, flooded paddy test, visual rating on 0 to 100 scale (0 no effect, 100 complete control) after 13 to 15 days; for Plant response rating, Ducksalad: Flood (flooded paddy test), 13 to 15 days; for Ducksalad plant response rating: Flood, 31 g ai/ha, scale 0 to 100 (0 no effect, 100 complete control)
Outline: as §3

[9] = test system: umbrella sedge (Cyperus difformis); experiment: Test B flooded paddy test; conditions: for Plant response rating, Flood, Sedge, Umbrella: 250 g ai/ha, flooded paddy test, visual rating on 0 to 100 scale (0 no effect, 100 complete control) after 13 to 15 days; for Plant response rating, Sedge, Umbrella: Flood (flooded paddy test), 13 to 15 days; for Sedge, Umbrella plant response rating: Flood, 31 g ai/ha, scale 0 to 100 (0 no effect, 100 complete control)
Outline: as §3

[10] = test system: barnyardgrass (Echinochloa crus-galli); experiment: Test B flooded paddy test; conditions: for Plant response rating, Flood, Barnyardgrass: 250 g ai/ha, flooded paddy test, visual rating on 0 to 100 scale (0 no effect, 100 complete control) after 13 to 15 days; for Plant response rating, Barnyardgrass: Flood (flooded paddy test), 13 to 15 days; for Barnyardgrass plant response rating: Flood, 31 g ai/ha, scale 0 to 100 (0 no effect, 100 complete control)
Outline: as §3

[11] = Postemergence, 125 g ai/ha, 0 to 100 scale where 0 is no effect and 100 is complete control
[12] = Postemergence, 500 g ai/ha, 0 to 100 scale, 0 = no effect, 100 = complete control, approx. ten days
[13] = Preemergence, 125 g ai/ha, 0 to 100 scale, 0 = no effect, 100 = complete control
[14] = Preemergence, 500 g ai/ha, visual injury, 0 to 100 scale (0 no effect, 100 complete control), approx. ten days
[15] = Preemergence, 500 g ai/ha, 0 to 100 scale, 0 = no effect, 100 = complete control
[16] = 62 g ai/ha, scale of 0 to 100 where 0 is no effect and 100 is complete control
[17] = 125 g ai/ha, scale 0 to 100, 0 is no effect, 100 is complete control

CCCn1c(C2CC2)ncc(C(=O)C2=C(O)CCCC2=O)c1=O [Compound 153]
Plant response rating, Pigweed [1, 11]: 100 | Plant response rating, Pigweed [1, 12]: 100 | Plant response rating, Pigweed [1, 13]: 100 | Plant response rating, Pigweed [1, 14]: 100 | Plant response rating, Foxtail, Giant [2, 11]: 70 | Plant response rating, Foxtail, Giant [2, 12]: 80 | Plant response rating, Foxtail, Giant [2, 13]: 20 | Plant response rating, Foxtail, Giant [2, 14]: 70 | Plant response rating, Velvetleaf [3, 11]: 100 | Plant response rating, Velvetleaf [3, 12]: 100 | Plant response rating, Velvetleaf [3, 13]: 100 | Plant response rating, Velvetleaf [3, 15]: 100 | Plant response rating, Morningglory [4, 11]: 50 | Plant response rating, Morningglory [4, 12]: 60 | Plant response rating, Morningglory [4, 13]: 20 | Plant response rating, Morningglory [4, 14]: 70 | Plant response rating, Crabgrass, Large [5, 11]: 90 | Plant response rating, Crabgrass, Large [5, 12]: 90 | Plant response rating, Crabgrass, Large [5, 13]: 80 | Plant response rating, Crabgrass, Large [5, 14]: 100 | Plant response rating, Wheat [6, 11]: 0 | Plant response rating, Wheat [6, 12]: 10 | Plant response rating, Wheat [6, 13]: 0 | Plant response rating, Wheat [6, 15]: 20 | Plant response rating, Corn (corn (Zea mays); [11]): 0 | Plant response rating, Corn (corn (Zea mays); [12]): 20 | Plant response rating, Corn (corn (Zea mays); [13]): 20 | Plant response rating, Corn (corn (Zea mays); [14]): 20 | Plant response rating, Barnyardgrass [7, 11]: 80 | Plant response rating, Barnyardgrass [7, 12]: 90 | Plant response rating, Barnyardgrass [7, 13]: 40 | Plant response rating, Barnyardgrass [7, 14]: 80 | Plant response rating, Flood, Rice (rice (Oryza sativa)): 65 | Plant response rating, Rice (rice (Oryza sativa); [16]): 35 | Plant response rating, Rice (rice (Oryza sativa); [17]): 55 | Rice plant response rating (rice (Oryza sativa)): 35 | Plant response rating, Flood, Ducksalad [8]: 100 | Plant response rating, Ducksalad [8, 16]: 65 | Plant response rating, Ducksalad [8, 17]: 100 | Ducksalad plant response rating [8]: 0 | Plant response rating, Flood, Sedge, Umbrella [9]: 95 | Plant response rating, Sedge, Umbrella [9, 16]: 0 | Plant response rating, Sedge, Umbrella [9, 17]: 80 | Sedge, Umbrella plant response rating [9]: 0 | Plant response rating, Flood, Barnyardgrass [10]: 45 | Plant response rating, Barnyardgrass [10, 16]: 0 | Plant response rating, Barnyardgrass [10, 17]: 35 | Barnyardgrass plant response rating [10]: 0

Cc1ccc(F)cc1-n1c(-c2cccc(Br)c2)ncc(C(=O)C2=C(O)CCCC2=O)c1=O [Compound 154]
Plant response rating, Pigweed [1, 11]: 60 | Plant response rating, Pigweed [1, 12]: 100 | Plant response rating, Pigweed [1, 13]: 30 | Plant response rating, Pigweed [1, 14]: 80 | Plant response rating, Foxtail, Giant [2, 11]: 60 | Plant response rating, Foxtail, Giant [2, 12]: 90 | Plant response rating, Foxtail, Giant [2, 13]: 10 | Plant response rating, Foxtail, Giant [2, 14]: 30 | Plant response rating, Velvetleaf [3, 11]: 100 | Plant response rating, Velvetleaf [3, 12]: 100 | Plant response rating, Velvetleaf [3, 13]: 40 | Plant response rating, Velvetleaf [3, 15]: 80 | Plant response rating, Morningglory [4, 11]: 30 | Plant response rating, Morningglory [4, 12]: 70 | Plant response rating, Morningglory [4, 13]: 0 | Plant response rating, Morningglory [4, 14]: 0 | Plant response rating, Crabgrass, Large [5, 11]: 70 | Plant response rating, Crabgrass, Large [5, 12]: 100 | Plant response rating, Crabgrass, Large [5, 13]: 10 | Plant response rating, Crabgrass, Large [5, 14]: 50 | Plant response rating, Wheat [6, 11]: 0 | Plant response rating, Wheat [6, 12]: 0 | Plant response rating, Wheat [6, 13]: 0 | Plant response rating, Wheat [6, 15]: 0 | Plant response rating, Corn (corn (Zea mays); [11]): 0 | Plant response rating, Corn (corn (Zea mays); [12]): 10 | Plant response rating, Corn (corn (Zea mays); [13]): 0 | Plant response rating, Corn (corn (Zea mays); [14]): 0 | Plant response rating, Barnyardgrass [7, 11]: 90 | Plant response rating, Barnyardgrass [7, 12]: 90 | Plant response rating, Barnyardgrass [7, 13]: 0 | Plant response rating, Barnyardgrass [7, 14]: 40 | Plant response rating, Flood, Rice (rice (Oryza sativa)): 75 | Plant response rating, Rice (rice (Oryza sativa); [16]): 0 | Plant response rating, Rice (rice (Oryza sativa); [17]): 60 | Rice plant response rating (rice (Oryza sativa)): 0 | Plant response rating, Flood, Ducksalad [8]: 100 | Plant response rating, Ducksalad [8, 16]: 50 | Plant response rating, Ducksalad [8, 17]: 70 | Ducksalad plant response rating [8]: 0 | Plant response rating, Flood, Sedge, Umbrella [9]: 100 | Plant response rating, Sedge, Umbrella [9, 16]: 95 | Plant response rating, Sedge, Umbrella [9, 17]: 95 | Sedge, Umbrella plant response rating [9]: 0 | Plant response rating, Flood, Barnyardgrass [10]: 40 | Plant response rating, Barnyardgrass [10, 16]: 0 | Plant response rating, Barnyardgrass [10, 17]: 0 | Barnyardgrass plant response rating [10]: 0
